Assay results: ChEMBL document CHEMBL5226390, “Synthesis and Structure-Activity Analysis of Icaritin Derivatives as Potential Tumor Growth Inhibitors of Hepatocellular Carcinoma Cells” (J Nat Prod, 2023)
≈ marks a conversion by molar mass, not a printed value. Calls of active or inactive are those of the source. No cut-off for these calls is given here.

Legend:
SMMC-7721 [1] = experiment: Induction of cell cycle arrest in human SMMC-7721 cells assessed as accumulation of cells at S phase at 4 uM incubated for 48 hrs by PI staining based flow cytometry (reference value: 24.94%); assay type: functional
HepG2 [2] = experiment: Induction of apoptosis in human HepG2 cells assessed as necrotic cells at 2 uM incubated for 48 hrs by AnnexinV-FITC/PI staining based flow cytometry (reference value: 2.22%); assay type: functional
SMMC-7721 [3] = experiment: Induction of cell cycle arrest in human SMMC-7721 cells assessed as downregulation of Cdc2 protein expression at 2 to 8 uM incubated for 48 hrs by western blot analysis; assay type: functional, cell-based; conditions: dose 2-8 µM
HepG2 [4] = experiment: Induction of apoptosis in human HepG2 cells assessed as chromatin condensation and fragmentation at 2 to 8 uM incubated for 48 hrs by Hoechst 33258 staining based fluorescence microscopic analysis; assay type: functional, cell-based; conditions: dose 2-8 µM
HepG2 [5] = experiment: Induction of apoptosis in human HepG2 cells assessed as necrotic cells at 8 uM incubated for 48 hrs by AnnexinV-FITC/PI staining based flow cytometry (reference value: 2.22%); assay type: functional
HepG2 [6] = experiment: Induction of cell cycle arrest in human HepG2 cells assessed as accumulation of cells at G0/G1 phase at 2 uM incubated for 48 hrs by PI staining based flow cytometry (reference value: 64.11%); assay type: functional
HepG2 [7] = experiment: Induction of apoptosis in human HepG2 cells assessed as early apoptotic cells at 2 uM incubated for 48 hrs by AnnexinV-FITC/PI staining based flow cytometry (reference value: 3.41%); assay type: functional
HepG2 [8] = experiment: Induction of cell cycle arrest in human HepG2 cells assessed as downregulation of CDK4 protein expression at 2 to 8 uM incubated for 48 hrs by western blot analysis; assay type: functional, cell-based; conditions: dose 2-8 µM
HepG2 [9] = experiment: Induction of apoptosis in human HepG2 cells assessed as viable cells at 2 uM incubated for 48 hrs by AnnexinV-FITC/PI staining based flow cytometry (reference value: 91.1%); assay type: functional; conditions: read-out: Activity
SMMC-7721 [10] = experiment: Induction of cell cycle arrest in human SMMC-7721 cells assessed as accumulation of cells at G2/M phase at 4 uM incubated for 48 hrs by PI staining based flow cytometry (reference value: 15.49%); assay type: functional
HepG2 [11] = experiment: Induction of apoptosis in human HepG2 cells assessed as viable cells at 8 uM incubated for 48 hrs by AnnexinV-FITC/PI staining based flow cytometry (reference value: 91.1%); assay type: functional; conditions: read-out: Activity
HepG2 [12] = experiment: Induction of apoptosis in human HepG2 cells assessed as late apoptotic cells at 4 uM incubated for 48 hrs by AnnexinV-FITC/PI staining based flow cytometry (reference value: 3.23%); assay type: functional
HepG2 [13] = experiment: Induction of apoptosis in human HepG2 cells assessed as early apoptotic cells at 4 uM incubated for 48 hrs by AnnexinV-FITC/PI staining based flow cytometry (reference value: 3.41%); assay type: functional
SMMC-7721 [14] = experiment: Induction of apoptosis in human SMMC-7721 cells assessed as late apoptotic cells at 4 uM incubated for 48 hrs by AnnexinV-FITC/PI staining based flow cytometry (reference value: 1.51%); assay type: functional
[15] = Solubility of the compound in water incubated for 24 hrs under stirring conditions by HPLC analysis; assay type: physicochemical
HepG2 [16] = experiment: Induction of cell cycle arrest in human HepG2 cells assessed as upregulation of p21 protein expression at 2 to 8 uM incubated for 48 hrs by western blot analysis; assay type: functional, cell-based; conditions: dose 2-8 µM
SMMC-7721 [17] = experiment: Induction of apoptosis in human SMMC-7721 cells assessed as necrotic cells at 8 uM incubated for 48 hrs by AnnexinV-FITC/PI staining based flow cytometry (reference value: 12.3%); assay type: functional
SMMC-7721 [18] = experiment: Induction of apoptosis in human SMMC-7721 cells assessed as late apoptotic cells at 2 uM incubated for 48 hrs by AnnexinV-FITC/PI staining based flow cytometry (reference value: 1.51%); assay type: functional
HepG2 [19] = experiment: Induction of cell cycle arrest in human HepG2 cells assessed as accumulation of cells at G2/M phase at 8 uM incubated for 48 hrs by PI staining based flow cytometry (reference value: 17.89%); assay type: functional
SMMC-7721 [20] = experiment: Induction of apoptosis in human SMMC-7721 cells assessed as viable cells at 4 uM incubated for 48 hrs by AnnexinV-FITC/PI staining based flow cytometry (reference value: 85.1%); assay type: functional; conditions: read-out: Activity
SMMC-7721 [21] = experiment: Induction of apoptosis in human SMMC-7721 cells assessed as early apoptotic cells at 2 uM incubated for 48 hrs by AnnexinV-FITC/PI staining based flow cytometry (reference value: 1.13%); assay type: functional
SMMC-7721 [22] = experiment: Potency index, ratio of Sorafenib IC50 to test compound IC50 for antiproliferative activity against human SMMC-7721 cells; assay type: functional
SMMC-7721 [23] = experiment: Induction of apoptosis in human SMMC-7721 cells assessed as chromatin condensation and fragmentation at 2 to 8 uM incubated for 48 hrs by Hoechst 33258 staining based fluorescence microscopic analysis; assay type: functional, cell-based; conditions: dose 2-8 µM
SMMC-7721 [24] = experiment: Induction of cell cycle arrest in human SMMC-7721 cells assessed as accumulation of cells at S phase at 8 uM incubated for 48 hrs by PI staining based flow cytometry (reference value: 24.94%); assay type: functional
SMMC-7721 [25] = experiment: Induction of cell cycle arrest in human SMMC-7721 cells assessed as accumulation of cells at G2/M phase at 2 uM incubated for 48 hrs by PI staining based flow cytometry (reference value: 15.49%); assay type: functional
HepG2 [26] = experiment: Antiproliferative activity against human HepG2 cells assessed as reduction in cell viability incubated for 48 hrs by MTT assay; assay type: functional, cell-based; conditions: HepG2, 48 h
HepG2 [27] = experiment: Induction of cell cycle arrest in human HepG2 cells assessed as accumulation of cells at G2/M phase at 4 uM incubated for 48 hrs by PI staining based flow cytometry (reference value: 17.89%); assay type: functional
SMMC-7721 [28] = experiment: Induction of cell cycle arrest in human SMMC-7721 cells assessed as accumulation of cells at G0/G1 phase at 4 uM incubated for 48 hrs by PI staining based flow cytometry (reference value: 59.57%); assay type: functional
SMMC-7721 [29] = experiment: Induction of apoptosis in human SMMC-7721 cells assessed as increase in number of detached cells with fewer cells at 2 to 8 uM incubated for 48 hrs by phase contrast microscopy; assay type: functional, cell-based; conditions: dose 2-8 µM
SMMC-7721 [30] = experiment: Induction of cell cycle arrest in human SMMC-7721 cells assessed as accumulation of cells at G2/M phase at 8 uM incubated for 48 hrs by PI staining based flow cytometry (reference value: 15.49%); assay type: functional
HepG2 [31] = experiment: Induction of cell cycle arrest in human HepG2 cells assessed as accumulation of cells at G0/G1 phase at 8 uM incubated for 48 hrs by PI staining based flow cytometry (reference value: 64.11%); assay type: functional
SMMC-7721 [32] = experiment: Induction of apoptosis in human SMMC-7721 cells assessed as necrotic cells at 4 uM incubated for 48 hrs by AnnexinV-FITC/PI staining based flow cytometry (reference value: 12.3%); assay type: functional
HepG2 [33] = experiment: Induction of apoptosis in human HepG2 cells assessed as late apoptotic cells at 8 uM incubated for 48 hrs by AnnexinV-FITC/PI staining based flow cytometry (reference value: 3.23%); assay type: functional
SMMC-7721 [34] = experiment: Antiproliferative activity against human SMMC-7721 cells assessed as reduction in cell viability incubated for 48 hrs by MTT assay; assay type: functional, cell-based; conditions: Homo sapiens, SMMC-7721, 48 h; read-out: IC50

For `COc1ccc(-c2oc3c(CC=C(C)C)c(OCCN4CCCC4)cc(O)c3c(=O)c2O[C@H]2O[C@H](C)[C@@H](O)[C@H](O)[C@@H]2O)cc1`, which Activity (SMMC-7721 [1]) is on record?
Its Activity is 19.6%.

And the Activity (HepG2 [2])?
The Activity was 8.93%.

What about the Activity (SMMC-7721 [3]) of the same molecule?
Its Activity is “Active”.

What about the Activity (HepG2 [4]) of the same molecule?
Its Activity is “Active”.

And the Activity (HepG2 [5])?
Its Activity is 16.7%.

What about the Activity (HepG2 [6]) of the same molecule?
The Activity was 68.79%.

What about the Activity (HepG2 [7]) of the same molecule?
Its Activity is 1.52%.

What about the Activity (HepG2 [8]) of the same molecule?
The Activity was “Active”.

And the viability at 2 µM (HepG2 [9])?
The viability at 2 µM was 83.3%.

What about the Activity (SMMC-7721 [10]) of the same molecule?
The Activity was 14.83%.

And the viability at 8 µM (HepG2 [11])?
Its viability at 8 µM is 62.2%.

What about the Activity (HepG2 [12]) of the same molecule?
Its Activity is 5.47%.

And the Activity (HepG2 [13])?
The Activity was 5.14%.

And the Activity (SMMC-7721 [14])?
Its Activity is 6.92%.

What about the solubility at 24 h [15] of the same molecule?
The solubility at 24 h was 11.8 mg/mL (≈ 19.3 mM).

What about the Activity (HepG2 [16]) of the same molecule?
The Activity was “Active”.

And the Activity (SMMC-7721 [17])?
Its Activity is 22.1%.

And the Activity (SMMC-7721 [18])?
Its Activity is 5.9%.

What about the Activity (HepG2 [19]) of the same molecule?
Its Activity is 6.39%.

And the viability at 4 µM (SMMC-7721 [20])?
Its viability at 4 µM is 89.6%.

What about the Activity (SMMC-7721 [21]) of the same molecule?
The Activity was 1.73%.

What about the “Ratio IC50” value (SMMC-7721 [22]) of the same molecule?
The value was 2.

What about the Activity (SMMC-7721 [23]) of the same molecule?
The Activity was “Active”.

And the Activity (SMMC-7721 [24])?
The Activity was 12.47%.

What about the Activity (SMMC-7721 [25]) of the same molecule?
Its Activity is 13.29%.

What about the IC50 (HepG2 [26]) of the same molecule?
The IC50 was 7.6 µM.

What about the Activity (HepG2 [27]) of the same molecule?
Its Activity is 10.7%.

What about the Activity (SMMC-7721 [28]) of the same molecule?
Its Activity is 65.57%.

What about the Activity (SMMC-7721 [29]) of the same molecule?
Its Activity is “Active”.

And the Activity (SMMC-7721 [30])?
The Activity was 8.88%.

And the Activity (HepG2 [31])?
The Activity was 91.15%.

And the Activity (SMMC-7721 [32])?
Its Activity is 0.956%.

And the Activity (HepG2 [33])?
The Activity was 17.7%.

What about the IC50 (SMMC-7721 [34]) of the same molecule?
Its IC50 is 3.1 µM.
